According to PubChem BioAssay (NCI):
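The compound was tested at five concentrations on cells cultured in 96-well plates, with a 48-hour exposure period. The concentration for 50% growth inhibition is given as GI50. Definition used: TGI = concentration required for complete inhibition of growth.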

How the values were obtained:
Assay in all cases: DTP human tumour cell line panel, 48 h
786-0 renal = system: 786-0 renal
ACHN renal = system: ACHN renal
CCRF-CEM leukemia = system: CCRF-CEM leukemia
NCI-H226 lung = system: NCI-H226 lung
OVCAR-3 ovarian = system: OVCAR-3 ovarian
UACC-62 melanoma = system: UACC-62 melanoma
OVCAR-5 ovarian = system: OVCAR-5 ovarian
RPMI-8226 leukemia = system: RPMI-8226 leukemia
SW-620 colon = system: SW-620 colon
T-47D breast = system: T-47D breast

CC(=O)[O-].O=[N+]([O-])c1ccc([O-])c(C=NCCN=Cc2cc([N+](=O)[O-])ccc2[O-])c1.[Mn+3]
GI50 (786-0 renal): > 100000 nM
TGI (786-0 renal): > 100 µM
GI50 (ACHN renal): > 100000 nM
TGI (ACHN renal): > 100 µM
GI50 (CCRF-CEM leukemia): 33400 nM
TGI (CCRF-CEM leukemia): > 100 µM
GI50 (NCI-H226 lung): 89.1 µM
TGI (NCI-H226 lung): > 100 µM
GI50 (OVCAR-3 ovarian): 63000 nM
TGI (OVCAR-3 ovarian): > 100 µM
GI50 (UACC-62 melanoma): > 100000 nM
TGI (UACC-62 melanoma): > 100 µM

Cc1cc(C)c2nccc(NCCCN(C)C)c2c1[N+](=O)[O-]
TGI (786-0 renal): > 100 µM
TGI (ACHN renal): > 100 µM
TGI (CCRF-CEM leukemia): > 100 µM
TGI (OVCAR-3 ovarian): > 100 µM
TGI (OVCAR-5 ovarian): > 100 µM
TGI (RPMI-8226 leukemia): > 100 µM
TGI (SW-620 colon): > 100 µM
TGI (T-47D breast): > 100 µM
TGI (UACC-62 melanoma): > 100 µM

C=C1c2ccccc2N(S(=O)(=O)c2ccc(C)cc2)C12CCCCC2
TGI (786-0 renal): > 100 µM
TGI (ACHN renal): > 100 µM
TGI (CCRF-CEM leukemia): > 100 µM
TGI (NCI-H226 lung): > 100 µM
TGI (OVCAR-3 ovarian): > 100 µM
TGI (OVCAR-5 ovarian): > 100 µM
TGI (RPMI-8226 leukemia): > 100 µM
TGI (SW-620 colon): > 100 µM
TGI (UACC-62 melanoma): > 100 µM

N#CC1=C(N)Oc2c(sc3c(Br)cccc23)C1c1ccc(F)cc1 (stereo unspecified)
GI50 (786-0 renal): 525 nM
TGI (786-0 renal): 14.2 µM
GI50 (ACHN renal): 682 nM
TGI (ACHN renal): 17 µM
GI50 (CCRF-CEM leukemia): 381 nM
TGI (CCRF-CEM leukemia): 13 µM
GI50 (OVCAR-3 ovarian): 265 nM
TGI (OVCAR-3 ovarian): 0.917 µM
GI50 (OVCAR-5 ovarian): 1770 nM
TGI (OVCAR-5 ovarian): 19.6 µM
GI50 (RPMI-8226 leukemia): 482 nM
TGI (RPMI-8226 leukemia): 19.7 µM
GI50 (SW-620 colon): 476 nM
TGI (SW-620 colon): 34.6 µM
GI50 (T-47D breast): 340 nM
TGI (T-47D breast): 19.7 µM
GI50 (UACC-62 melanoma): 512 nM
TGI (UACC-62 melanoma): 23.5 µM

O=C1[C@H]2ON(c3ccccc3)C(c3cccc([N+](=O)[O-])c3)[C@H]2C(=O)N1c1ccc(Cc2ccc(N3C(=O)[C@@H]4ON(c5ccccc5)C(c5cccc([N+](=O)[O-])c5)[C@@H]4C3=O)cc2)cc1 (stereo partly specified)
TGI (786-0 renal): > 100 µM
TGI (ACHN renal): > 100 µM
TGI (CCRF-CEM leukemia): > 100 µM
TGI (NCI-H226 lung): > 100 µM
TGI (OVCAR-3 ovarian): > 100 µM
TGI (OVCAR-5 ovarian): > 100 µM
TGI (RPMI-8226 leukemia): > 100 µM
TGI (SW-620 colon): > 100 µM
TGI (UACC-62 melanoma): > 100 µM

C/C(=N\O)[C@H]1CC[C@@]2(C)[C@@H]3CC[C@H]4C(C)(C)/C(=N/O)CC[C@@]45CC35CC[C@]12C (stereo partly specified)
GI50 (786-0 renal): 2970 nM
TGI (786-0 renal): 6.85 µM
GI50 (ACHN renal): 2510 nM
TGI (ACHN renal): 4.97 µM
GI50 (NCI-H226 lung): 5.03 µM
TGI (NCI-H226 lung): > 16.7 µM
GI50 (RPMI-8226 leukemia): 696 nM
TGI (RPMI-8226 leukemia): 6.17 µM
GI50 (SW-620 colon): 8680 nM
TGI (SW-620 colon): > 16.7 µM
GI50 (UACC-62 melanoma): 5440 nM
TGI (UACC-62 melanoma): > 16.7 µM

O=c1ncccn1C1OC(CO)C(O)C1F (stereo unspecified)
TGI (786-0 renal): > 100 µM
TGI (ACHN renal): > 100 µM
GI50 (CCRF-CEM leukemia): > 100000 nM
TGI (CCRF-CEM leukemia): > 100 µM
TGI (NCI-H226 lung): > 100 µM
TGI (OVCAR-3 ovarian): > 100 µM
TGI (OVCAR-5 ovarian): > 100 µM
TGI (RPMI-8226 leukemia): > 100 µM
GI50 (SW-620 colon): > 100000 nM
TGI (SW-620 colon): > 100 µM
GI50 (UACC-62 melanoma): > 100000 nM
TGI (UACC-62 melanoma): > 100 µM

CC12O[Te]34OC1(C)C(C)(O3)C2(C)O4
TGI (786-0 renal): 29.3 µM
TGI (ACHN renal): 27 µM
TGI (NCI-H226 lung): 44.6 µM
TGI (OVCAR-3 ovarian): 30.4 µM
TGI (OVCAR-5 ovarian): 23.7 µM
TGI (SW-620 colon): 32.6 µM
TGI (UACC-62 melanoma): 87.5 µM

O=C1OC(c2ccc(Cl)c3ccccc23)c2ccccc21 (stereo unspecified)
TGI (786-0 renal): > 100 µM
TGI (ACHN renal): > 100 µM
TGI (CCRF-CEM leukemia): > 100 µM
TGI (OVCAR-5 ovarian): > 100 µM
TGI (RPMI-8226 leukemia): > 100 µM
TGI (UACC-62 melanoma): > 100 µM

C=CCN(N=O)C(=O)ON1C(=O)CCC1=O
TGI (786-0 renal): > 100 µM
TGI (ACHN renal): > 100 µM
TGI (CCRF-CEM leukemia): > 100 µM
TGI (OVCAR-3 ovarian): > 100 µM
TGI (OVCAR-5 ovarian): > 100 µM
TGI (RPMI-8226 leukemia): > 100 µM
TGI (SW-620 colon): > 100 µM
TGI (UACC-62 melanoma): > 100 µM

CC1(C)Oc2ccccc2N2O[C@@H]3C(=O)N(c4ccccc4)C(=O)[C@@H]3C21c1ccccc1 (stereo partly specified)
TGI (786-0 renal): 30.3 µM
TGI (CCRF-CEM leukemia): > 100 µM
TGI (NCI-H226 lung): > 100 µM
TGI (OVCAR-3 ovarian): 47 µM
TGI (OVCAR-5 ovarian): > 100 µM
TGI (RPMI-8226 leukemia): > 100 µM
TGI (SW-620 colon): > 100 µM
TGI (UACC-62 melanoma): 87.8 µM

Cc1nnc(N=Nc2c(O)[nH]c3ccccc23)[nH]c1=O
TGI (786-0 renal): > 100 µM
TGI (ACHN renal): > 100 µM
TGI (NCI-H226 lung): > 100 µM
TGI (OVCAR-3 ovarian): > 100 µM
TGI (OVCAR-5 ovarian): > 100 µM
TGI (RPMI-8226 leukemia): > 100 µM
TGI (SW-620 colon): > 100 µM
TGI (UACC-62 melanoma): > 100 µM

CCC1(Cl)C(=O)NC(=O)N(C2CC(O)C(CO)O2)C1N=[N+]=[N-] (stereo unspecified)
TGI (786-0 renal): > 100 µM
TGI (ACHN renal): > 100 µM
TGI (CCRF-CEM leukemia): > 100 µM
TGI (OVCAR-3 ovarian): > 100 µM
TGI (OVCAR-5 ovarian): > 100 µM
TGI (RPMI-8226 leukemia): > 100 µM
TGI (SW-620 colon): > 100 µM
TGI (UACC-62 melanoma): > 100 µM

CCCCCCCCCCCCNC(=O)[C@H]1CSC(c2ccsc2)N1 (stereo partly specified)
GI50 (786-0 renal): 916 nM
TGI (786-0 renal): 1.65 µM
GI50 (ACHN renal): 938 nM
TGI (ACHN renal): 1.75 µM
GI50 (NCI-H226 lung): 0.896 µM
TGI (NCI-H226 lung): 1.74 µM
GI50 (OVCAR-3 ovarian): 995 nM
TGI (OVCAR-3 ovarian): 1.81 µM
GI50 (OVCAR-5 ovarian): 991 nM
TGI (OVCAR-5 ovarian): 1.83 µM
GI50 (RPMI-8226 leukemia): 1720 nM
TGI (RPMI-8226 leukemia): 5.69 µM
GI50 (SW-620 colon): 969 nM
TGI (SW-620 colon): 1.85 µM
GI50 (T-47D breast): 976 nM
TGI (T-47D breast): 2.02 µM
GI50 (UACC-62 melanoma): 929 nM
TGI (UACC-62 melanoma): 1.82 µM

C#CCn1cc(C=C2C(=O)NC(=S)NC2=O)c2cc(Cl)ccc21
GI50 (786-0 renal): 2170 nM
TGI (786-0 renal): 5.04 µM
GI50 (ACHN renal): 1970 nM
TGI (ACHN renal): 4.07 µM
GI50 (CCRF-CEM leukemia): 2320 nM
TGI (CCRF-CEM leukemia): 6.45 µM
GI50 (NCI-H226 lung): 2.82 µM
TGI (NCI-H226 lung): 8.47 µM
GI50 (OVCAR-3 ovarian): 1640 nM
TGI (OVCAR-3 ovarian): 3 µM
GI50 (OVCAR-5 ovarian): 1960 nM
TGI (OVCAR-5 ovarian): 4.12 µM
GI50 (SW-620 colon): 1790 nM
TGI (SW-620 colon): 3.45 µM
GI50 (T-47D breast): 3040 nM
TGI (T-47D breast): 14.1 µM
GI50 (UACC-62 melanoma): 1850 nM
TGI (UACC-62 melanoma): 3.91 µM

Nc1nc(Cl)cc(NCCCCCCNc2cc(Cl)nc(N)n2)n1
TGI (786-0 renal): > 100 µM
TGI (ACHN renal): 22.5 µM
TGI (CCRF-CEM leukemia): > 100 µM
TGI (NCI-H226 lung): > 100 µM
TGI (OVCAR-3 ovarian): > 100 µM
TGI (OVCAR-5 ovarian): > 100 µM
TGI (RPMI-8226 leukemia): > 100 µM
TGI (SW-620 colon): > 100 µM
TGI (UACC-62 melanoma): 97.8 µM

CN1CCN(CCCOc2ccc3ncnc(Nc4ccc(Oc5cccc(F)c5)c(Cl)c4)c3c2)CC1
GI50 (786-0 renal): 1610 nM
TGI (786-0 renal): 3 µM
GI50 (ACHN renal): 1020 nM
TGI (ACHN renal): 2.19 µM
GI50 (CCRF-CEM leukemia): 1970 nM
TGI (CCRF-CEM leukemia): 8.21 µM
GI50 (OVCAR-3 ovarian): 1610 nM
TGI (OVCAR-3 ovarian): 3.74 µM
GI50 (OVCAR-5 ovarian): 1670 nM
TGI (OVCAR-5 ovarian): 3.29 µM
GI50 (RPMI-8226 leukemia): 1580 nM
TGI (RPMI-8226 leukemia): 4.86 µM
GI50 (SW-620 colon): 1680 nM
TGI (SW-620 colon): 3.25 µM
GI50 (T-47D breast): 1340 nM
TGI (T-47D breast): 4.35 µM
GI50 (UACC-62 melanoma): 1750 nM
TGI (UACC-62 melanoma): 3.27 µM

CCOc1ccccc1NC(=O)CCC(=O)NN
TGI (786-0 renal): > 100 µM
TGI (ACHN renal): > 100 µM
TGI (CCRF-CEM leukemia): > 100 µM
TGI (NCI-H226 lung): > 100 µM
TGI (OVCAR-3 ovarian): > 100 µM
TGI (OVCAR-5 ovarian): > 100 µM
TGI (RPMI-8226 leukemia): > 100 µM
TGI (SW-620 colon): > 100 µM
TGI (UACC-62 melanoma): > 100 µM

Cc1cc(S(N)(=O)=O)c(S/C(=N\NS(=O)(=O)c2ccccc2)c2ccc(Cl)c(Cl)c2)cc1Cl
GI50 (786-0 renal): 54900 nM
TGI (786-0 renal): > 100 µM
GI50 (ACHN renal): 30000 nM
TGI (ACHN renal): 92.7 µM
GI50 (CCRF-CEM leukemia): 86000 nM
TGI (CCRF-CEM leukemia): > 100 µM
GI50 (NCI-H226 lung): 45.1 µM
TGI (NCI-H226 lung): > 100 µM
GI50 (OVCAR-3 ovarian): 25800 nM
TGI (OVCAR-3 ovarian): 72.7 µM
GI50 (OVCAR-5 ovarian): 52400 nM
TGI (OVCAR-5 ovarian): > 100 µM
GI50 (RPMI-8226 leukemia): 28800 nM
TGI (RPMI-8226 leukemia): > 100 µM
GI50 (SW-620 colon): 37300 nM
TGI (SW-620 colon): > 100 µM
GI50 (UACC-62 melanoma): 34700 nM
TGI (UACC-62 melanoma): > 100 µM
